Test results taken from patent publication US20060281700A1, “SYNERGISTIC MODULATION OF FLT3 KINASE USING AMINOPYRIMIDINES KINASE MODULATORS” (priority 2005, published 2006).

Key:
[1] = tested on: Baf3-FLT3 cells stimulated with 100 ng/ml FLT ligand; experiment: Cell proliferation assay, single agents and FTI/FLT3 inhibitor combinations, Baf3-FLT3; format: cell-based, murine
Method: The cell lines that were tested included those that are dependent on FLT3ITD mutant activity for growth (MV4-11 and Baf3-FLT3ITD), FLT3 wt activity for growth (Baf3FLT3) and those that grow independent of FLT3 activity (THP-1). […] Baf3-FLT3 and Baf3-FLT3ITD cell lines were obtained from Dr. Michael Henrich and the Oregon Health Sciences University. The Baf3 FLT3 cell lines were created by stable transfection of parental Baf3 cells (a murine B cell lymphoma line dependent on the cytokine IL-3 for growth) with either wild-type FLT3 or FLT3 containing the ITD insertion in the juxatamembrane domain of the receptor resulting in its constitutive activation. Cells were selected for their ability to grow in the absence of IL-3 and in either the presence of FLT3 ligand (Baf3-FLT3) or independent of any growth factor (Baf3-ITD). […]
Dose responses for the individual compounds alone were determined for each cell line using a standard 72-hour cell proliferation assay (see FIGS. 6.1-6.8). […]
To statistically evaluate the synergy of a FLT3 inhibitor and an FTI in FLT3 dependent cell lines, dosing combinations were evaluated by the method of Chou and Talalay. See Chou T C, Talalay P. (1984) “Quantitative analysis of dose-effect relationships: the combined effects of multiple drugs or enzyme inhibitors.” Adv Enzyme Regul. […] Using this method, multiple FTI and FLT3 combinations were evaluated. […]

[2] = tested on: MV4-11 cells; experiment: Annexin V Staining (apoptosis); format: cell-based, human; settings: MV4-11, 48 hours, fixed ratio 4:1 Tipifarnib and Compound A
Excerpt: The ultimate goal of treatment for FLT3 related disorders is to kill the disease causative cells and to cause regression of disease. […] Annexin V binding to phosphotidyl serine that has translocated from the inner leaflet of the plasma membrane to the outer leaflet of the plasma membrane and is a well established way to measure apoptosis of cells. See van Engeland M., L. J. Nieland, et al. (1998) “Annexin V-affinity assay: a review on an apoptosis detection system based on phosphatidylserine exposure.” Cytometry. 31(1):1-9.
After the compound incubations, treated cells were harvested and stained with Annexin V-PE and 7-AAD using the Guava Nexin apoptosis kit according to the protocol in the Biological Activity Measurements section hereafter. Annexin V staining peaks at 60% because cells late in apoptosis begin to fall apart and are considered debris. […] Statistical analysis using the above described method of Chou and Talalay was also performed to determine the synergy of the combination. […] The magnitude of the synergistic induction of apoptosis of MV4-11 cells by the combination of an FTI and a FLT3 inhibitor could not be predicted by those skilled in the art. […]
Annexin V Staining. […] All annexin positive cells were considered apoptotic and percent Annexin positive cells was calculated.

[3] = tested on: MV4-11 AML cells; experiment: Cell proliferation assay, single agents and FTI/FLT3 inhibitor combinations, MV4-11; format: cell-based, human
Method: Using this method inhibitors are added simultaneously to cells in a ratio of the IC50 dose of each compound alone. The data is collected and subject to isobolar analysis of fixed ratio dose combinations as described by Chou and Talalay. This analysis is used to generate a combination index or CI. The CI value of 1 corresponds to compounds that behave additively; CI values <0.9 are considered synergistic and CI values of >1.1 are considered antagonistic. Using this method, multiple FTI and FLT3 combinations were evaluated. […] Using the isobologram, synergy can be graphically represented. Data points for combinations that are additive lie along the isobolar line at a given dose affect (CI=1). Data points for combinations that are synergistic fall to the left, or under, the isobolar line for a given dose effect (CI<0.9). Data points for combinations that are antagonistic fall to the right, or over, the isobolar line for a given dose effect (CI>1.1).
Inhibition data was analyzed using Calcsyn (BioSoft, Ferguson, Mo.) and the combination index (C.I.) calculated. C.I. values <0.9 are considered synergistic.

[4] = cited from earlier work
[5] = multicenter Phase II trial, relapsed AML
[6] = patients with relapsed and refractory AML, phase I

Structure (SMILES): Cn1cncc1C(N)(c1ccc(Cl)cc1)c1ccc2c(c1)c(-c1cccc(Cl)c1)cc(=O)n2C (single isomer, unassigned; (+)) [Tipifarnib, (+)-6-[amino(4-chlorophenyl)(1-methyl-1H-imidazol-5-yl)methyl]-4-(3-chlorophenyl)-1-methyl-2(1H)-quinolinone]
- increase in potency of Tipifarnib with a single sub-IC50 dose of FLT3 inhibitor Compound A ([1]; Baf3-FLT3, Compound A 100 nM): more than 3 fold
- IC50 ([1]; Mus musculus, Baf3-FLT3 proliferation, FTI alone or in the combination named): 1.85 nM
- shift of EC50 for the induction of annexin V staining in combination [2]: more than eight-fold
- IC50 ([3]; Homo sapiens, MV4-11 proliferation, FTI alone or in the combination named): 15.4 nM
- increase in potency of Tipifarnib with a single sub-IC50 dose of FLT3 inhibitor Compound A ([3]; MV4-11, Compound A 50 nM): more than 3 fold
- >50% reduction in bone marrow blasts [4, 5]: 31 of 50
- complete responses (bone marrow blasts <5%) [4, 5]: 17 of 50
- patients achieving complete remission [4, 6]: 2 patients
- response rate [4, 6]: ~30%
